Laboratory results as given in patent US6022696A, “Methods of identifying agonists or antagonists of angiotensin IV” (Washington State University Research Foundation, priority 1998, dated 2000).

Test: Stability of angiotensin peptides in binding assay buffer / assay conditions
Assay type: physicochemical
Settings: 4 h at 37° C., reverse phase HPLC

SMILES: CC[C@H](C)[C@H](NC(=O)[C@H](Cc1ccc(O)cc1)NC(=O)[C@@H](N)C(C)C)C(=O)N[C@@H](Cc1cnc[nH]1)C(=O)N1CCC[C@H]1C(=O)N[C@@H](Cc1ccccc1)C(=O)O [AIV, Val1 Tyr2 Ile3 His4 Pro5 Phe6]
- hydrolysis in binding buffer: less than 10%
